Patent publication US20250313553A1, “ANNULATED 2-AMINO-3-CYANO THIOPHENES AND DERIVATIVES FOR THE TREATMENT OF CANCER” (Boehringer Ingelheim Int'l GmbH Corp., priority 2021, published 2025)

Experiments:
KRAS (WT) and SOS1 = biological target: T1, KRAS (WT) and SOS1 (Homo sapiens, UniProt P01116, C118S); assay: KRAS::SOS1 AlphaScreen binding assay, KRAS WT
T1 construct: KRAS (WT) 1-169, N-terminal 6His-tag for purification; 6His (N, cleaved yes); TEV cleavage site
Experimental: Low IC50 values in this assay setting are indicative of strong inhibition of protein-protein interaction between SOS1 and KRAS:
These assays measure the inhibitory effect of compounds on KRAS mutant protein-protein interactions using the Alpha Screen technology by Perkin Elmer.
For the chosen highest assay concentration of 100 μM, 150 nL of compound solution are transferred from a 10 mM DMSO compound stock solution. A series of eleven fivefold dilutions per compound are transferred to the assay plate, compound dilutions are tested in duplicates. DMSO are added as backfill to a total volume of 150 nL.
The assays run on a fully automated robotic system in a darkened room below 100 Lux. To 150 nl of compound dilution 10 μl of a mix including KRAS mutant protein, SOS1 (final assay concentrations see above) and GDP nucleotide (Sigma G7127; final assay concentration 10 μM) in assay buffer (1×PBS, 0.1% BSA, 0.05% Tween 20) are added into columns 1-24. […]
Plates are kept at room temperature in a darkened incubator. After an additional 60 minutes incubation time the signal is measured in a PerkinElmer Envision HTS Multilabel Reader using the AlphaScreen specs from PerkinElmer.
IC50 values are calculated and analyzed with Boehringer Ingelheim's MEGALAB IC50 application using a 4 parametric logistic model.

GP2D cells = assay: GP2D proliferation assay (120 h); assay type: cell-based; details: colorectal cancer, G12D
Experimental: GP2D cells (ATCC No. CRL-5807) are dispensed into white 384-well plates, flat and white bottom(Perkin Elmer, 6007680) at a density of 500 cells per well in 40 μl DMEM (Sigma, D6429)+1×GlutaMAX (Gibco, 35050038)+10% FCS (fetal calf serum). […] Compounds (10 mM stock in DMSO) are added at logarithmic dose series using the HP Digital Dispenser D300 (Tecan), including DMSO controls and normalizing for added DMSO. For the T0 time point measurement, untreated cells are analyzed at the time of compound addition. Plates are incubated for 120 h, and cell viability is measured using CellTiter-Glo luminescent cell viability reagent (Promega product code G7570). Viability (stated as percent of control) is defined as relative luminescence units RLU of each well divided by the RLU of cells in DMSO controls. IC50 values are determined from viability measurements by non-linear regression using a four-parameter model.

T1 sequence (P01116 1-169 isoform P01116-2 C118S): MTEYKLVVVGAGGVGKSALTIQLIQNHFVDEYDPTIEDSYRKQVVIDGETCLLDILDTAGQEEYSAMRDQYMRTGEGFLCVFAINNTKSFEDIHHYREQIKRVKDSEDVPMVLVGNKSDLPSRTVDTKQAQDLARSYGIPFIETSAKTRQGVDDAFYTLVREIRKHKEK

## C[C@H]1CN(C)CCN1c1cccc(-c2noc([C@@]3(C)CCCc4sc(N)c(C#N)c43)n2)n1 [Example V-1]
KRAS (WT) and SOS1
  IC50: 125 nM

## C[C@H](Oc1cccc(-c2noc([C@@]3(C)CCCc4sc(N)c(C#N)c43)n2)n1)[C@@H]1CCCN1C [Example V-8]
KRAS (WT) and SOS1
  IC50: 28 nM

## C[C@H](Oc1ccnc(-c2noc([C@@]3(C)CCCc4sc(N)c(C#N)c43)n2)n1)[C@@H]1CCCN1C [Example V-11]
GP2D cells
  IC50: 152 nM
